# Source: patent publication US7569570B2, “Thienopyrimidines, process for preparing the same and use thereof” (Takeda Pharmaceutical Company Limited, priority 2002, dated 2009)
row,melting point [°C],SMILES
1,203 to 205,"CCNC(=O)Nc1ccc(-c2sc3c(c2CNC)c(=O)n(-c2ccc(OCCOC)cc2)c(=O)n3Cc2c(F)cccc2F)cc1 [Example 28, N-(4-{1-(2,6-difluorobenzyl)-3-[4-(2-methoxyethoxy)phenyl]-5-[(methylamino)methyl]-2,4-dioxo-1,2,3,4-tetrahydrothieno[2,3-d]pyrimidin-6-yl}phenyl)-N′-ethylurea]"
2,228 to 231,"CCNC(=O)Nc1ccc(-c2sc3c(c2CN(C)CCOCCOC)c(=O)n(-c2ccccc2)c(=O)n3Cc2c(F)cccc2F)cc1 [Example 109, N-[4-(1-(2,6-difluorobenzyl)-5-{[[2-(2-methoxyethoxy)ethyl](methyl)amino]methyl}-2,4-dioxo-3 phenyl-1,2,3,4-tetrahydrothieno[2,3-d]pyrimidin-6-yl)phenyl]-N′-ethylurea]"
3,232 to 235,CCNC(=O)Nc1ccc(-c2sc3c(c2CN(C)CCOC)c(=O)n(-c2ccc(OCCNS(C)(=O)=O)cc2)c(=O)n3Cc2c(F)cccc2F)cc1 [Example 106]
4,208 to 209,"CCNC(=O)Nc1ccc(-c2sc3c(c2CN(C)CC(=O)OCC)c(=O)n(-c2ccccc2)c(=O)n3Cc2c(F)cccc2F)cc1 [Example 5, ethyl[{[1-(2,6-difluorobenzyl)-6-(4-{[(ethylamino)carbonyl]amino}phenyl)-2,4-dioxo-3-phenyl-1,2,3,4-tetrahydrothieno[2,3-d]pyrimidin-5-yl]methyl}(methyl)amino]acetate]"
5,260 to 265,CCNC(=O)Nc1ccc(-c2sc3c(c2CN(C)CCOC)c(=O)n(-c2ccc(O)cc2)c(=O)n3Cc2c(F)cccc2F)cc1 [Example 103]
6,236 to 238,CCNC(=O)Nc1ccc(-c2sc3c(c2CN(C)CCOC)c(=O)n(-c2ccc(OCCO)cc2)c(=O)n3Cc2c(F)cccc2F)cc1 [Example 108]
7,218 to 220,"CCNC(=O)Nc1ccc(-c2sc3c(c2CN(C)CCOC)c(=O)n(-c2ccc(NC(C)=O)cc2)c(=O)n3Cc2c(F)cccc2F)cc1 [Example 98, N-[4-(3-(4-acetoaminophenyl)-1-(2,6-difluorobenzyl)-5-{[2-methoxyethyl(methyl)amino]methyl}-2,4-dioxo-1,2,3,4-tetrahydrothieno[2,3-d]pyrimidin-6-yl)phenyl]-N′-ethylurea]"
8,210 to 212,CCNC(=O)Nc1ccc(-c2sc3c(c2CN(C)CCC(=O)N(C)C)c(=O)n(-c2ccc(F)cc2)c(=O)n3Cc2c(F)cccc2F)cc1 [Example 32]

# The remaining lines, values behind:
row,SMILES,melting point [°C]
1,CCNC(=O)Nc1ccc(-c2sc3c(c2CN(C)C[C@@H]2CCCN2S(C)(=O)=O)c(=O)n(-c2ccccc2)c(=O)n3Cc2c(F)cccc2F)cc1 [Example 84],189 to 191
2,"CCNC(=O)Nc1ccc(-c2sc3c(c2CN(C)CCCC(=O)OCC)c(=O)n(-c2ccccc2)c(=O)n3Cc2c(F)cccc2F)cc1 [Example 6, ethyl 4-[{[1-(2,6-difluorobenzyl)-6-(4-{[(ethylamino)carbonyl]amino}phenyl)-2,4-dioxo-3-phenyl-1,2,3,4-tetrahydrothieno[2,3-d]pyrimidin-5-yl]methyl}(methyl)amino]butanate]",203 to 204
3,CCNC(=O)Nc1ccc(-c2sc3c(c2CN(C)C[C@H]2CCCN2S(C)(=O)=O)c(=O)n(-c2ccccc2)c(=O)n3Cc2c(F)cccc2F)cc1 [Example 85],189 to 190
4,"CCNC(=O)Nc1ccc(-c2sc3c(c2CN(C)CCC(=O)N(C)C)c(=O)n(-c2ccccc2)c(=O)n3Cc2c(F)cccc2F)cc1 [Example 10, 3-[{[1-(2,6-difluorobenzyl)-6-(4-{[(ethylamino)carbonyl]amino}phenyl)-2,4-dioxo-3-phenyl-1,2,3,4-tetrahydrothieno[2,3-d]pyrimidin-5-yl]methyl}(methyl)amino]-N,N-dimethylpropanamide]",236 to 237
5,"CCNC(=O)Nc1ccc(-c2sc3c(c2CN(C)CCC(=O)N2CCCC2)c(=O)n(-c2ccccc2)c(=O)n3Cc2c(F)cccc2F)cc1 [Example 94, N-{4-[1-(2,6-difluorobenzyl)-5-({methyl[3-oxo-3-(1-pyrrolidinyl)propyl]amino}methyl)-2,4-dioxo-3-phenyl-1,2,3,4-tetrahydrothieno[2,3-d]pyrimidin-6-yl]phenyl}-N′-ethylurea]",240 to 244
6,CCNC(=O)Nc1ccc(-c2sc3c(c2CN(C)CCOC)c(=O)n(-c2ccc(OCCOC)c(OCCOC)c2)c(=O)n3Cc2c(F)cccc2F)cc1 [Example 105],222 to 225
7,"CCNC(=O)Nc1ccc(-c2sc3c(c2CN(C)CCCC(=O)N(C)C)c(=O)n(-c2ccccc2)c(=O)n3Cc2c(F)cccc2F)cc1 [Example 18, 4-[{[1-(2,6-difluorobenzyl)-6-(4-{[(ethylamino)carbonyl]amino}phenyl)-2,4-dioxo-3-phenyl-1,2,3,4-tetrahydrothieno[2,3-d]pyrimidin-5-yl]methyl}(methyl)amino]-N,N-dimethylbutane amide]",191 to 193
8,"CCNC(=O)Nc1ccc(-c2sc3c(c2CN(C)CCOCCOCC)c(=O)n(-c2ccccc2)c(=O)n3Cc2c(F)cccc2F)cc1 [Example 111, N-[4-(1-(2,6-difluorobenzyl)-5-[{[2-(2-ethoxy)ethoxy]ethyl(methyl)amino}methyl]-2,4-dioxo-3-phenyl-1,2,3,4-tetrahydrothieno[2,3-d]pyrimidin-6-yl)phenyl]-N′-ethylurea]",230 to 233
9,"CCNC(=O)Nc1ccc(-c2sc3c(c2CN(C)CCNC(C)=O)c(=O)n(-c2ccccc2)c(=O)n3Cc2c(F)cccc2F)cc1 [Example 19, N-{2-[{[1-(2,6-difluorobenzyl)-6-(4-{[(ethylamino)carbonyl]amino}phenyl)-2,4-dioxo-3-phenyl-1,2,3,4-tetrahydrothieno[2,3-d]pyrimidin-5-yl]methyl}(methyl)amino]ethyl}acetamide]",185 to 186
10,"CCNC(=O)Nc1ccc(-c2sc3c(c2CN(C)CCNS(C)(=O)=O)c(=O)n(-c2ccccc2)c(=O)n3Cc2c(F)cccc2F)cc1 [Example 22, N-{2-[{[1-(2,6-difluorobenzyl)-6-(4-{[(ethylamino)carbonyl]amino}phenyl)-2,4-dioxo-3-phenyl-1,2,3,4-tetrahydrothieno[2,3-d]pyrimidin-5-yl]methyl}(methyl)amino]ethyl}methanesulfonamide]",186 to 188
11,"CCNC(=O)Nc1ccc(-c2sc3c(c2CN(C)C(C)C)c(=O)n(-c2ccccc2)c(=O)n3Cc2c(F)cccc2F)cc1 [Example 92, N-[4-(1-(2,6-difluorobenzyl)-5-{[isopropyl (methyl)amino]methyl}-2,4-dioxo-3-phenyl-1,2,3,4-tetrahydrothieno[2,3-d]pyrimidin-6-yl)phenyl]-N′-ethylurea]",208 to 210
12,"CCNC(=O)Nc1ccc(-c2sc3c(c2CN(C)CCN2CCCS2(=O)=O)c(=O)n(-c2ccccc2)c(=O)n3Cc2c(F)cccc2F)cc1 [Example 86, N-[4-(1-(2,6-difluorobenzyl)-5-([[2-(1,1-dioxo-2-isothiazolidinyl)ethyl](methyl)amino]methyl}-2,4-dioxo-3-phenyl-1,2,3,4-tetrahydrothieno[2,3-d]pyrimidin-6-yl)phenyl]-N′-ethylurea]",210 to 211
13,CCNC(=O)Nc1ccc(-c2sc3c(c2CN(C)CCN2CCCC2=O)c(=O)n(-c2ccc(F)cc2)c(=O)n3Cc2c(F)cccc2F)cc1 [Example 33],204 to 206
